Source: patent US12691089B2, “Stable levothyroxine compositions in aprotic polar solvents” (Xeris Pharmaceuticals, Inc., priority 2022, dated 2026)

Tests used:
[1] = Accelerated stability of 5 mg/mL levothyroxine in (acidified) DMSO: discoloration and RP-HPLC
Experimental: To attempt to overcome these discoloration and degradation problems, levothyroxine solutions were prepared with either the free acid or the sodium salt of levothyroxine dissolved in acidified DMSO, at a levothyroxine sodium concentration of 5 mg/mL. To prepare acidified DMSO solvents, DMSO was acidified with 0-10 mM H2SO4 (from a 1.0 N H2SO4 stock solution), and samples were stored in 2 mL glass vials (0.5 mL fill volume per vial) and stored at 45° C. upright for 9 days for an accelerated stability analysis without any secondary packaging (e.g., foil pouch). Samples were then photographed (to examine discoloration) and examined via reverse phase HPLC (to examine levothyroxine chemical stability), comparing day 0 samples to day 9 samples (vs. a sample of each formulation that was frozen and held at −20° C. as a “time 0” control).
To determine if the discoloration observed with these formulations correlated with levothyroxine chemical degradation, samples of each vial were assessed via reverse phase HPLC (RP-HPLC).

[2] = Solubility of levothyroxine sodium in DMSO; assay type: physicochemical; conditions: organic solvent or mixture
From the text: However, direct dissolution of levothyroxine sodium in DMSO (with no added excipients) caused rapid visual discoloration and chemical degradation (where the extent of discoloration generally correlates with degradation). […] Additionally, the chemical degradation appeared to be associated with the discoloration of the solution that was observed.

[3] = Storage stability of levothyroxine formulations in acidified DMSO (RP-HPLC T4/T3); assay type: physicochemical; conditions: 10 mg/mL in DMSO
Experimental: Based on the results shown above, formulations of levothyroxine sodium were prepared at an acid concentration that promoted chemical stability and a moisture content of at least 4% (w/w). […] The overall moisture content of the formulation was ~5% when prepared using 1.0 N H2SO4. The moisture content of this formulation was due almost entirely to the added sulfuric acid (with a minor contribution from the trehalose dihydrate), which at 26 mM (from a 1.0 N (0.5 M) stock solution) results in a moisture content~5% (w/w). When prepared using concentrated acid (e.g., 10 N), the overall moisture content of the formulation could be reduced to about ~1% without any significant impact on storage stability.
An example of the stability that can be achieved using this formulation approach at multiple temperatures for up to 6 months is shown in Table 1, which represents the purity of T4 (levothyroxine sodium) in the 10 mg/mL, 26-28 mM acid DMSO formulations described above, over time at various storage temperatures. Results shown are measurements of T4 vs. T3 (triiodothyronine, the main degradation product of T4), determined as described above via RP-HPLC. In this table, the higher the percentage of T4 and the lower the percentage of T3, the less degradation observed in the levothyroxine formulations over time.

[4] = cited from earlier work

With `N[C@@H](Cc1cc(I)c(Oc2cc(I)c(O)c(I)c2)c(I)c1)C(=O)O` [levothyroxine free acid] the “degradation by RP-HPLC” value ([1]; 5 mg/mL in DMSO, 0-2 mM H2SO4, 9 days at 45° C.) was “extensive degradation”, the discoloration ([1]; 5 mg/mL in DMSO, 0-10 mM H2SO4, day 0) was “did not show significant discoloration” and the “discoloration compared to levothyroxine sodium salt” value ([1]; 5 mg/mL in DMSO, all concentrations of acid, 9 days at 45° C.) was “lower amount of discoloration”. For the same compound, the “sulfuric acid concentration necessary to significantly enhance chemical stability” value ([1]; 5 mg/mL solution in DMSO, accelerated stability testing) was ~ 10 mM.

For `N[C@@H](Cc1cc(I)c(Oc2cc(I)c(O)c(I)c2)c(I)c1)C(=O)O` [levothyroxine sodium], the solubility [2] was no less than 30 mg/mL, the “chemical stability (T4 peak purity) vs acid concentration” value ([3]; <26 mM sulfuric acid) was “extensive chemical degradation” and the “chemical stability (T4 peak purity) vs acid concentration” value ([3]; above approximate 26 mM acid) was “chemical stability essentially plateaus”. The discoloration ([1]; 5 mg/mL in DMSO, 10 mM H2SO4, 9 days at 45° C.) was “no significant discoloration” and the discoloration ([1]; 5 mg/mL in DMSO, H2SO4 below 4 mM, day 0) was “degradation-associated discoloration fairly quickly”.

For `N[C@@H](Cc1cc(I)c(Oc2cc(I)c(O)c(I)c2)c(I)c1)C(=O)O` [levothyroxine], the solubility in water [4] is given as no more than 0.1 mg/mL.
